Target: T1, OXA-57 (Burkholderia pseudomallei, UniProt Q6ZZZ2)
Assay: biochemical
Details: not given

T1 sequence (Q6ZZZ2 24-269 limits assumed): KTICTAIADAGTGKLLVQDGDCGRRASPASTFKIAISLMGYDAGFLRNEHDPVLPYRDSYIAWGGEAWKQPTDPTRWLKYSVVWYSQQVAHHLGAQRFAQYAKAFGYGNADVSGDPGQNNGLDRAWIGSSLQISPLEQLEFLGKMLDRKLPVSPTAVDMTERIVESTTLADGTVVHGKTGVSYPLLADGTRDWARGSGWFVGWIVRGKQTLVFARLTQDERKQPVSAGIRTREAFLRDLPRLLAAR

Structure (SMILES)	IC50 [µM]
O=C(O)C[C@@H]1CC[C@H](NC(=O)Cc2cccs2)B(O)O1 [Vaborbactam]	> 3980
CO/N=C(\C(=O)N[C@@H]1C(=O)N2C(C(=O)O)=C(COC(C)=O)CS[C@H]12)c1csc(N)n1 [Cefotaxime]	> 3980
C[C@H]1[C@H](NC(=O)/C(=N\OC(C)(C)C(=O)O)c2csc(N)n2)C(=O)N1S(=O)(=O)O [Aztreonam]	> 3980
CC(C)(O/N=C(\C(=O)N[C@@H]1C(=O)N2C(C(=O)[O-])=C(C[n+]3ccccc3)CS[C@H]12)c1csc(N)n1)C(=O)O [Ceftazidime]	> 3980
O=C(O)[C@H]1/C(=C/CO)O[C@@H]2CC(=O)N21 [Clavulanate]	9.4

Target: T1, OXA-57
Assay: not given
Details: not given

Structure (SMILES)	Ki [µM]
CC(=O)OCC1=C(C(=O)O)N2C(=O)[C@@H](NC(=O)Cc3cccs3)[C@H]2SC1 [Cephalothin]	405 ± 97
C[C@@H](O)[C@H]1C(=O)N2C(C(=O)O)=C(SCCN=CN)C[C@H]12 [Imipenem]	265 ± 79
C[C@@H](O)[C@H]1C(=O)N2C(C(=O)O)=C(S[C@@H]3CN[C@H](C(=O)N(C)C)C3)[C@H](C)[C@H]12 [Meropenem]	646 ± 355

Target: T1, OXA-57
Assay: biochemical
Details: pIC50

Structure (SMILES)	IC50 [µM]
O=C(O)[C@H]1/C(=C/CO)O[C@@H]2CC(=O)N21 [Clavulanate]	12.6

Reference: article doi:10.1101/2024.12.23.630153v1 (biorxiv, 2024)
